# Laboratory results reported in patent US20230287003A1, “BCL6 INHIBITORS” (Cancer Research Technology Limited, priority 2018, published 2023).
# Target: human BCL6 BTB domain (Trx-6×His-BCL6) / BCOR-AF633 peptide (Homo sapiens (Human), UniProt P41182)
# Experiment: HTRF assay
# Format: binding
# Conditions: 1 nM Trx-6×His-BCL6, 300 nM BCOR-AF633 peptide, 2 hours incubation
# Description: The % inhibition at each concentration was calculated by normalising FRET ratio to the appropriate high (DMSO with all reagents) and low (DMSO without BCL6) controls.
row,Compound,HTRF avg pIC50 (1 nM)
1,"(S)-10-((5-chloro-2-((S)-4,4-difluoro-3- (hydroxymethyl)piperidin-1-yl)pyrimidin-4-yl)amino)-2-cyclopropyl- 3,3-difluoro-7-methyl-1,2,3,4-tetrahydro-[1,4]oxazepino[2,3-c]quinolin- 6(7H)-one or (S)-10-((5-chloro-2-((R)-4,4-difluoro-3- (hydroxymethyl)piperidin-1-yl)pyrimidin-4-yl)amino)-2-cyclopropyl- 3,3-difluoro-7-methyl-1,2,3,4-tetrahydro-[1,4]oxazepino[2,3-c]quinolin- 6(7H)-one [Example 12q]",8.65
2,"C[C@H]1COC(=O)c2c(c3cc(Nc4nc(N5CC6CCC(C6)C5)ncc4Cl)ccc3n(C)c2=O)N1 [Example 8h, (2S)-10-((2-(3-azabicyclo[3.2.1]octan-3-yl)-5-chloropyrimidin-4-yl)amino)-2,7-dimethyl-2,3-dihydro-[1,4]oxazepino[6,5-c]quinoline-5,6(1H,7H)-dione]",6.47
3,"C[C@H]1COCc2c(c3cc(Nc4ccnc(Cl)c4C#N)ccc3n(C)c2=O)N1 [Example 9a, (S)-2-chloro-4-((2,7-dimethyl-6-oxo-1,2,3,5,6,7-hexahydro-[1,4]oxazepino[6,5-c]quinolin-10-yl)amino)nicotinonitrile]",5.66
4,"Cn1c(=O)c2c(c3cc(Nc4nc(N5CCC(F)(F)[C@@H](O)C5)ncc4Cl)ccc31)N[C@@H](C1CC1)CCO2 (single isomer, unassigned) [Example 12z, (R)-10-((5-chloro-2-((S)-4,4-difluoro-3-hydroxypiperidin-1-yl)pyrimidin-4-yl)amino)-2-cyclopropyl-7-methyl-1,2,3,4-tetrahydro-[1,4]oxazepino[2,3-c]quinolin-6(7H)-one or (R)-10-((5-chloro-2((R)-4,4-difluoro-3-hydroxypiperidin-1-yl)pyrimidin-4-yl)amino)-2-cyclopropyl-7-methyl-1,2,3,4-tetrahydro-[1,4]oxazepino[2,3-c]quinolin-6(7H)-one]",7.52
5,"CC1CNC(=O)c2c(c3cc(Nc4ccnc(Cl)c4C#N)ccc3n(C)c2=O)N1 (stereo not drawn) [Example 18a, 2-chloro-4-((2,7-dimethyl-5,6-dioxo-2,3,4,5,6,7-hexahydro-1H-[1,4]diazepino[6,5-c]quinolin-10-yl)amino)nicotinonitrile]",6.58
6,"C[C@@H]1CN(c2ncc(Cl)c(Nc3ccc4c(c3)c3c(c(=O)n4C)SCC[C@H](C4CC4)N3)n2)C[C@H](C)C1(F)F [Example 12m, (R)-10-((5-chloro-2-((3S,5R)-4,4-difluoro-3,5-dimethylpiperidin-1-yl)pyrimidin-4-yl)amino)-2-cyclopropyl-7-methyl-1,2,3,4-tetrahydro-[1,4]thiazepino[2,3-c]quinolin-6(7H)-one]",6.84

# Same assay, conditions: read-out: IC50 in the HTRF assay
row,Compound,IC50 [nM]
1,"Cn1c(=O)c2c(c3cc(Nc4ccnc(Cl)c4C#N)ccc31)NC(C1CCC1)CCO2 (stereo not drawn) [2-chloro-4-((2-cyclobutyl-7-methyl-6-oxo-1,2,3,4,6,7-hexahydro-[1,4]oxazepino[2,3-c]quinolin-10-yl)amino)nicotinonitrile]",> 2500
2,"CC(C)C1CCOc2c(c3cc(Nc4ccnc(Cl)c4C#N)ccc3n(C)c2=O)N1 (stereo not drawn) [2-chloro-4-((2-isopropyl-7-methyl-6-oxo-1,2,3,4,6,7-hexahydro-[1,4]oxazepino[2,3-c]quinolin-10-yl)amino)nicotinonitrile]",> 2500
3,"Cn1c(=O)c2c(c3cc(Nc4ccnc(Cl)c4C#N)ccc31)NC(CC1CC1)CO2 (stereo not drawn) [2-chloro-4-((2-(cyclopropylmethyl)-6-methyl-5-oxo-2,3,5,6-tetrahydro-1H-[1,4]oxazino[2,3-c]quinolin-9-yl)amino)nicotinonitrile]",> 2500
